# Data published in PubChem BioAssay (NCI).
#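 Test compounds were applied to cells in 96-well plates for 48 hours at 5 doses. GI50: concentration for 50% inhibition of growth. TGI marks complete inhibition of growth.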
# Legend:
# Test in all cases: NCI anticancer screen, dose series, 48 h
# [1] = tested on: 786-0 renal
# [2] = tested on: A498 renal
# [3] = tested on: A549 NSCLC
# [4] = tested on: ACHN renal
# [5] = tested on: BT-549 breast
# [6] = tested on: CCRF-CEM leukemia
# [7] = tested on: COLO 205 colon
# [8] = tested on: DU-145 prostate
# [9] = tested on: EKVX NSCLC
# [10] = tested on: HCT-116 colon
# [11] = tested on: HCT-15 colon
# [12] = tested on: HL-60(TB) leukemia
# [13] = tested on: HOP-62 NSCLC
# [14] = tested on: HOP-92 NSCLC
# [15] = tested on: HT29 colon
# [16] = tested on: K-562 leukemia
# [17] = tested on: KM12 colon
# [18] = tested on: M14 melanoma
# [19] = tested on: MALME-3M melanoma
# [20] = tested on: MCF7 breast
# [21] = tested on: MDA-MB-435
# [22] = tested on: MDA-N
# [23] = tested on: MOLT-4 leukemia
# [24] = tested on: NCI-H226 lung
# [25] = tested on: NCI-H23 lung
# [26] = tested on: NCI-H460 lung
# [27] = tested on: NCI/ADR-RES ovarian
# [28] = tested on: OVCAR-3 ovarian
# [29] = tested on: OVCAR-5 ovarian
# [30] = tested on: OVCAR-8 ovarian
# [31] = tested on: PC-3 prostate
# [32] = tested on: RPMI-8226 leukemia
# [33] = tested on: RXF 393 renal
# [34] = tested on: SF-268 CNS
# [35] = tested on: SF-295 CNS
# [36] = tested on: SF-539 CNS
# [37] = tested on: SK-MEL-28 melanoma
# [38] = tested on: SN12C renal
# [39] = tested on: SNB-19 CNS
# [40] = tested on: SR leukemia
# [41] = tested on: SW-620 colon
# [42] = tested on: TK-10 renal
# [43] = tested on: U251 CNS
# [44] = tested on: UACC-257 melanoma
# [45] = tested on: UO-31 renal
# [46] = tested on: CAKI-1 renal
# [47] = tested on: HCC-2998 colon
# [48] = tested on: HS 578T breast
# [49] = tested on: IGROV1 ovarian
# [50] = tested on: LOX IMVI melanoma
# [51] = tested on: MDA-MB-231 breast
# [52] = tested on: NCI-H522 lung
# [53] = tested on: OVCAR-4 ovarian
# [54] = tested on: SK-MEL-2 melanoma
# [55] = tested on: SK-MEL-5 melanoma
# [56] = tested on: SK-OV-3 ovarian
# [57] = tested on: SNB-75 CNS
# [58] = tested on: T-47D breast
# [59] = tested on: UACC-62 melanoma
structure (smiles),measurement,setting,value
CC(=O)Nc1nnc(S(C)(=O)=O)s1,TGI,[1],> 100 µM
same,TGI,[2],> 100 µM
same,TGI,[3],> 100 µM
same,TGI,[4],> 100 µM
same,TGI,[5],> 100 µM
same,TGI,[6],> 100 µM
same,TGI,[7],> 100 µM
same,TGI,[8],> 100 µM
same,TGI,[9],> 100 µM
same,TGI,[10],> 100 µM
same,TGI,[11],> 100 µM
same,TGI,[12],> 100 µM
same,TGI,[13],> 100 µM
same,TGI,[14],> 100 µM
same,TGI,[15],> 100 µM
same,TGI,[16],> 100 µM
same,TGI,[17],> 100 µM
same,TGI,[18],> 100 µM
same,TGI,[19],> 100 µM
same,TGI,[20],> 100 µM
same,TGI,[21],> 100 µM
same,TGI,[22],> 100 µM
same,TGI,[23],> 100 µM
same,TGI,[24],> 100 µM
same,TGI,[25],> 100 µM
same,TGI,[26],> 100 µM
same,TGI,[27],> 100 µM
same,TGI,[28],> 100 µM
same,TGI,[29],> 100 µM
same,TGI,[30],> 100 µM
same,TGI,[31],> 100 µM
same,TGI,[32],> 100 µM
same,TGI,[33],> 100 µM
same,TGI,[34],> 100 µM
same,TGI,[35],> 100 µM
same,TGI,[36],> 100 µM
same,TGI,[37],> 100 µM
same,TGI,[38],> 100 µM
same,TGI,[39],> 100 µM
same,TGI,[40],> 100 µM
same,TGI,[41],> 100 µM
same,TGI,[42],> 100 µM
same,TGI,[43],> 100 µM
same,TGI,[44],> 100 µM
same,TGI,[45],> 100 µM
C[C@@H](Oc1ccc(C(=O)NS(=O)(=O)C(C)(C)C)cc1C(F)(F)F)c1ccc(Oc2ccccc2)cn1,GI50,[1],3.01 µM
same,TGI,[1],13 µM
same,GI50,[2],1.91 µM
same,TGI,[2],6.74 µM
same,GI50,[3],5.31 µM
same,TGI,[3],20.5 µM
same,GI50,[4],3.59 µM
same,TGI,[4],14.5 µM
same,GI50,[5],2.06 µM
same,TGI,[5],5.83 µM
same,GI50,[46],2.7 µM
same,TGI,[46],17.7 µM
same,GI50,[6],2.52 µM
same,TGI,[6],16.4 µM
same,GI50,[7],2.67 µM
same,TGI,[7],7.95 µM
same,GI50,[8],3.82 µM
same,TGI,[8],14.3 µM
same,GI50,[9],4.35 µM
same,TGI,[9],20.3 µM
same,GI50,[47],2.76 µM
same,TGI,[47],11.3 µM
same,GI50,[10],2.48 µM
same,TGI,[10],11.2 µM
same,GI50,[11],2.53 µM
same,TGI,[11],10.5 µM
same,GI50,[12],2.4 µM
same,TGI,[12],8.23 µM
same,GI50,[13],3.61 µM
same,TGI,[13],17.7 µM
same,GI50,[14],1.78 µM
same,TGI,[14],11.7 µM
same,GI50,[48],3.27 µM
same,TGI,[48],17.9 µM
same,GI50,[15],3.1 µM
same,TGI,[15],8.38 µM
same,GI50,[49],2.64 µM
same,TGI,[49],13.7 µM
same,GI50,[16],1.25 µM
same,TGI,[16],21 µM
same,GI50,[17],2.28 µM
same,TGI,[17],11.4 µM
same,GI50,[50],2.8 µM
same,TGI,[50],10.8 µM
same,GI50,[18],1.91 µM
same,TGI,[18],7.57 µM
same,GI50,[19],10.8 µM
same,TGI,[19],26.7 µM
same,GI50,[20],2.65 µM
same,TGI,[20],13.6 µM
same,GI50,[51],3.6 µM
same,TGI,[51],15.5 µM
same,GI50,[21],0.585 µM
same,TGI,[21],2.09 µM
same,GI50,[23],3.65 µM
same,TGI,[23],24.9 µM
same,GI50,[24],2.76 µM
same,TGI,[24],8.5 µM
same,GI50,[25],5.14 µM
same,TGI,[25],23.3 µM
same,GI50,[26],3.7 µM
same,TGI,[26],13.3 µM
same,GI50,[52],1.3 µM
same,TGI,[52],5.63 µM
same,GI50,[27],3.7 µM
same,TGI,[27],17.2 µM
same,GI50,[28],1.88 µM
same,TGI,[28],5.47 µM
same,GI50,[53],4.85 µM
same,TGI,[53],19.7 µM
same,GI50,[29],3.46 µM
same,TGI,[29],14 µM
same,GI50,[30],3.27 µM
same,TGI,[30],12.4 µM
same,GI50,[31],3.1 µM
same,TGI,[31],16.1 µM
same,GI50,[32],2.95 µM
same,TGI,[32],9.87 µM
same,GI50,[33],2.25 µM
same,TGI,[33],8.95 µM
same,GI50,[34],3.54 µM
same,TGI,[34],17.8 µM
same,GI50,[35],2.21 µM
same,TGI,[35],6.89 µM
same,GI50,[36],2.1 µM
same,TGI,[36],5.62 µM
same,GI50,[54],6.56 µM
same,TGI,[54],23.3 µM
same,GI50,[37],6.63 µM
same,TGI,[37],21.8 µM
same,GI50,[55],1.68 µM
same,TGI,[55],4.75 µM
same,GI50,[56],3.73 µM
same,TGI,[56],15.2 µM
same,GI50,[38],4.58 µM
same,TGI,[38],18.6 µM
same,GI50,[39],3.02 µM
same,TGI,[39],14 µM
same,GI50,[57],2.04 µM
same,TGI,[57],10.8 µM
same,GI50,[40],1.29 µM
same,TGI,[40],13.7 µM
same,GI50,[41],3.18 µM
same,TGI,[41],14.6 µM
same,GI50,[58],4.46 µM
same,TGI,[58],32.5 µM
same,GI50,[42],3.05 µM
same,TGI,[42],14.7 µM
same,GI50,[43],3.18 µM
same,TGI,[43],13.6 µM
same,GI50,[44],11.9 µM
same,TGI,[44],32.7 µM
same,GI50,[59],3.09 µM
same,TGI,[59],19.8 µM
same,GI50,[45],4.78 µM
same,TGI,[45],19.9 µM
COC(=O)[C@H](Cc1ccc(OC(C)(C)C)cc1)N[C@H](C)C(=O)N[C@@H](Cc1ccccc1)C(=O)OCc1ccccc1,TGI,[1],> 100 µM
same,TGI,[2],> 100 µM
same,TGI,[3],> 100 µM
same,TGI,[4],> 100 µM
same,TGI,[46],> 100 µM
same,TGI,[6],> 100 µM
same,TGI,[7],> 100 µM
same,TGI,[8],> 100 µM
same,TGI,[9],> 100 µM
same,TGI,[47],> 100 µM
same,TGI,[10],> 100 µM
same,TGI,[11],> 100 µM
same,TGI,[12],> 100 µM
same,TGI,[13],> 100 µM
same,TGI,[14],> 100 µM
same,TGI,[48],> 100 µM
same,TGI,[15],> 100 µM
same,TGI,[49],> 100 µM
same,TGI,[16],63.5 µM
same,TGI,[17],> 100 µM
same,TGI,[50],> 100 µM
same,TGI,[18],> 100 µM
same,TGI,[19],> 100 µM
same,TGI,[20],81.5 µM
same,TGI,[51],> 100 µM
same,TGI,[21],> 100 µM
same,TGI,[22],> 100 µM
same,TGI,[23],50 µM
same,TGI,[24],> 100 µM
same,TGI,[25],> 100 µM
same,TGI,[26],> 100 µM
same,TGI,[52],> 100 µM
same,TGI,[27],> 100 µM
same,TGI,[28],> 100 µM
same,TGI,[53],> 100 µM
same,TGI,[29],> 100 µM
same,TGI,[30],> 100 µM
same,TGI,[31],> 100 µM
same,TGI,[32],> 100 µM
same,TGI,[33],> 100 µM
same,TGI,[34],> 100 µM
same,TGI,[35],> 100 µM
same,TGI,[36],> 100 µM
same,TGI,[37],> 100 µM
same,TGI,[55],> 100 µM
same,TGI,[56],> 100 µM
same,TGI,[38],> 100 µM
same,TGI,[39],> 100 µM
same,TGI,[57],> 100 µM
same,TGI,[40],70.5 µM
same,TGI,[41],> 100 µM
same,TGI,[42],> 100 µM
same,TGI,[43],> 100 µM
same,TGI,[44],> 100 µM
same,TGI,[59],> 100 µM
same,TGI,[45],43.7 µM
